# Data taken from the METLIN SMRT retention time set (Domingo-Almenara et al. 2019).
# Assay: gradient 5% acetonitrile 3 min, to 50% in 2 min, to 85% in 15 min, held 3 min, 100 µL/min
# Conditions: column: Zorbax Extend-C18 2.1 x 50 mm; eluents: water / acetonitrile, 0.1% formic acid
# Outline: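 Retention time was recorded from adduct peaks, which were picked computationally and each inspected manually. Pure standards ran in mixtures of ~100 molecules on HPLC coupled to a quadrupole time-of-flight mass spectrometer, in positive and negative ionization mode, through a Zorbax Extend-C18 column (2.1 × 50 mm, 1.8 μm) at 100 μL/min. Eluents were water and acetonitrile, each with 0.1% formic acid.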
row,SMILES,RP-LC retention time [s]
1,Cc1nc(-c2cccnc2)nc2c1CCC(=O)N2Cc1cccnc1,560
2,Cc1nn(-c2ccccc2)c(C)c1CCc1nnc2sc(-c3ccc(N(C)C)cc3)nn12,1020
3,CCOCCCNS(=O)(=O)c1cccc(-c2nc(-c3ccc(C)cc3)no2)c1,1160
4,O=S(=O)(NCc1nc(-c2ccc(-c3csc(C4CC4)n3)cc2)no1)c1ccc(F)cc1,1080
5,CNC(=O)c1ccsc1NC(=O)c1coc2ccccc2c1=O,709
6,Nc1ncnc2sc3c(c12)CCCC3,588
7,CCC(C)NC(=O)c1cnn(-c2cc(-c3nc(C(C)(C)C)no3)ccn2)c1C (stereo unspecified),711
8,CCS(=O)(=O)Nc1ccc(-c2noc(-c3ccc4c(c3)OCO4)n2)cc1,954
9,CCn1cc(C(=O)Nc2ccc(F)c(Cl)c2)c2cccnc21,965
10,Cc1nc2cc(-c3noc(-c4ccc(Cl)s4)n3)ccc2o1,1230
11,Cc1cccc(NC(=O)Cn2ccc3ccc(-c4nnc(C)o4)cc32)c1,814
12,CC(C)(C)c1csc(-c2csc(S(=O)(=O)Nc3ccc(Cl)cc3F)c2)n1,1300
13,CSc1ncc(Cl)c(C(=O)Nc2cc(C)on2)n1,783
14,Cc1ccc(-c2csc(NC(=O)CCCc3nc(-c4ccc(Cl)cc4)no3)n2)cc1,1240
15,O=C(Nc1ccccc1)c1cccn1Cc1noc(-c2ccccc2)n1,1020
16,Cc1csc(-c2cc(S(=O)(=O)NCCCN3CCc4ccccc4C3)c(C)s2)n1,708

# More lines, now with the values ahead:
row,RP-LC retention time [s],SMILES
1,613,O=C(Nc1ccc2c(c1)OCO2)N1CCN(c2ccc3nnc(C4CC4)n3n2)CC1
2,651,COc1ccc(N2CCN(C(=O)c3csc(-c4ccc(N5CCCC5)nc4)n3)CC2)cc1
3,677,Cc1cc(=O)n(CC(=O)Nc2ccc(F)c(Cl)c2)c(N2CCOCC2)n1
4,636,O=C(NC1CCCCC1)c1ccc2ncnc(N3CCCC3)c2c1
5,565,Cn1c(NC(=O)c2ccc(N3C(=O)CCC3=O)cc2)cc(=O)n(C)c1=O
6,761,COc1ccc(CNC(=O)Cn2c(=O)c3c(C(=O)N4CCCCC4)cc(C)nc3n(C)c2=O)cc1
7,665,CCn1c(N2CCCC(C(=O)NCC3CCN(Cc4cc(C)ccc4C)CC3)C2)cc(=O)n(C)c1=O (stereo unspecified)
8,713,COc1ccc(NC(=O)N2CCN(Cc3nc4ccc(Cl)cc4o3)CC2)cc1
9,817,Cc1nnsc1C(=O)N1CCC2(CC1)OCCN2S(=O)(=O)c1ccc(Cl)cc1
10,658,CC(=O)N1CCC(C(=O)N2CCCCCCN(C)C(=O)[C@@H]3CCC[C@@H]32)CC1
11,585,COc1cccc(N2C(=O)CC(N3CCC(C(N)=O)CC3)C2=O)c1 (stereo unspecified)
12,566,COC(=O)CNC(=O)N(C)Cc1nc2cc(C(=O)N3CCCC3)ccc2n1C
13,974,COc1ccc(CNC(=O)c2c(C)sc3ccn(Cc4ccc(F)cc4)c(=O)c23)cc1
14,749,O=C1[C@H]2CN(Cc3ccc(Cl)cc3)C[C@H]2C(=O)N1CCc1ccccc1
15,601,CCCNC(=O)N1CCN(c2cc(-c3ccc(OC)c(OC)c3)ncn2)CC1
16,1050,CCc1ccc(CNC(=O)CN2CCc3ccccc3C2C(=O)N2CCC(C)CC2)cc1 (stereo unspecified)
17,715,COc1cccc(CNC(=O)C2CCCN(c3nnc(C)c4c(C)n(-c5ccccc5)nc34)C2)c1 (stereo unspecified)
18,628,COc1cc(C2CC(=O)c3cnc(N4CCN(C)CC4)nc3C2)cc(OC)c1OC (stereo unspecified)
19,586,Cc1ccc(CNC(=O)C2CCN(C(=O)c3cc(-c4ccncc4)n[nH]3)CC2)o1
20,788,Cc1cc(C)cc(N2C=C(C(=O)N3CCOCC3)S(=O)(=O)c3ccc(F)cc32)c1
